Measured values from patent publication US20110231103A1, “METHODS FOR DETERMINING MOLECULAR PHARMACOLOGY USING LABEL-FREE INTEGRATIVE PHARMACOLOGY” (priority 2010, published 2011).

These molecules were tested on 15 marker/4 cell line panel (A549, A431, HT29, HepG2 cells) (assay: Biosensor modulation indices against a 15 marker/4 cell line panel, Hierarchical Euclidean cluster analysis). Settings: 15 markers at EC100 in A549, A431, HT29, HepG2 cells; library of ~2000 compounds.
Format: cell-based
Experimental: (§1) Cells were typically grown using ˜1 to 2×10^4 cells per well at passage 3 to 15 suspended in 50 μl of the corresponding culture medium in the biosensor microplate, and were cultured at 37° C. under air/5% CO2 for ˜1 day. Except for A431 cells which underwent one day (at least 14 hours) culture followed by one day (at least 14 hours) starvation in serum free medium, all other cells were directly assayed without starvation. The confluency for all cells at the time of assays was ˜95% to 100%.
(§2) For biosensor cellular assays, molecule solutions were made by diluting the stored concentrated solutions with the HBSS (1× Hanks balanced salt solution, plus 20 mM Hepes, pH 7.1), and transferred into a 384well polypropylene molecule storage plate to prepare a molecule source plate. Both molecule and marker source plates were made separately when a two-step assay was performed. In parallel, the cells were washed twice with the HBSS and maintained in 30 μl of the HBSS to prepare a cell assay plate. Both the cell assay plate and the molecule and marker source plate(s) were then incubated in the hotel of the reader system. After ˜1 hr of incubation the baseline wavelengths of all biosensors in the cell assay microplate were recorded and normalized to zero. Afterwards, a 2 to 10 minute continuous recording was carried out to establish a baseline, and to ensure that the cells reached a steady state. Cellular responses were then triggered by pipetting 10 μl of the marker solutions into the cell assay plate using the on-board liquid handler.
To study the influence of molecules on a marker-induced response, a second stimulation with the marker at a fixed dose (typically at EC80 or EC 100) was applied. The resonant wavelengths of all biosensors in the microplate were normalized again to establish a second baseline, right before the second stimulation. The two stimulations were usually separated by ˜1 hr.
To further explore the potential of cluster analysis for label-free integrative pharmacology, a library of ˜2000 compounds were subject to label-free integrative pharmacology analysis against a 15 marker/4 cell line panel. The cell/marker panel consists of the A549 cell (the mitochondria KATP opener pinacidil, the TLR3 agonist poly(I:C), the protein kinase C activator PMA, the adenylate cyclase activator forskolin, the PAR2 agonist SLIGKV, and the histamine H1 receptor agonist histamine), A431 cells (the β2AR agonist epinephrine, the EGFR agonist EGF, the GPR109A agonist nicotinic acid, and the histamine H1 receptor agonist histamine), HT29 cells (the EGFR/HER2 agonist EGF, the neurotensin receptor NTS1/NTS3 agonist neurotensin, the IGF1 receptor IGF1, and the hERG activator mallotoxin), and the HepG2 cell (the TL9 agonist ODN2006). All molecules in the library were screened in four cell lines to produce a library of biosensor primary indices. In addition, all molecules in the library were also screened in the four cell lines against each respective marker at EC100 to produce a library of biosensor modulation indices. The modulation indices were generated by normalizing the marker DMR signal in the presence of a molecule to the marker DMR in the absence of a molecule. For each marker, one or two specific DMR events were used for normalization. For A549 cells, it is pinacidil (the N-DMR at 30 min; pinacidil), Poly(I:C) (the P-DMR at 50 min, poly(I:C)), PMA (the P-DMR at 50 min, PMA), SLIGKV (the P-DMR at 20 min, SLIGKV), forskolin (the P-DMR at 50 min, Forskolin), Histamine (the P-DMR at 10 min, His1; the P-DMR at 30 min, His2) (the bolded name was indicated in FIG. 6, the same is for the below). For A431 cells, it is epinephrine (the P-DMR at 50 min, Epi), nicotinic acid (the N-DMR at 3 min, NA), EGF (the P-DMR at 5 min, EGF1; the N-DMR at 40 min, EGF2), and histamine (the P-DMR at 3 min, His3).
`Cc1nc2n(c(=O)c1CCN1CCC(c3noc4cc(F)ccc34)CC1)CCCC2` [risperidone] was tested, and the “node cluster by biosensor modulation index (similarity to known anti-histamines)” value was “specific node cluster that consists of 8 compounds”. In the case of `CN1CCC(=C2c3ccccc3CC(=O)c3sccc32)CC1` [ketotifen], the “node cluster by biosensor modulation index (similarity to known anti-histamines)” value is reported as “specific node cluster that consists of 8 compounds”. For `O=c1cc(N2CCNCC2)oc2c(-c3ccccc3)cccc12` [LY303511], the “node cluster by biosensor modulation index (similarity to known anti-histamines)” value was “can also be a histamine H1R or a H1R pathway antagonist”. With `Fc1ccc(C(c2ccc(F)cc2)N2CCN(C/C=C/c3ccccc3)CC2)cc1` [flunarizine] the “node cluster by biosensor modulation index (similarity to known anti-histamines)” value was “specific node cluster that consists of 8 compounds”. `C[C@@H]1CN([C@H]2CC[C@](C#N)(c3ccc(F)cc3)CC2)CC[C@]1(C(=O)O)c1ccccc1` [levocabastine] was tested, and the “node cluster by biosensor modulation index (similarity to known anti-histamines)” value was “specific node cluster that consists of 8 compounds”. `CN(C)CCCN1c2ccccc2Sc2ccc(Cl)cc21` [Chlorpromazine] was tested, and the “node cluster by biosensor modulation index (similarity to known anti-histamines)” value was “specific node cluster that consists of 8 compounds”.

What follows are molecules tested against T1, β2-AR (Homo sapiens, UniProt P07550) (assay: DMR assays of a panel of β2-AR ligands in quiescent A431 cells, multi-parameter and cluster analysis). Settings: not given.
T1 construct: All of these receptors were endogenously expressed in A431 cells, as confirmed by quantitative RT-PCR; endogenous in cells; host or cells: quiescent (serum-starved) A431 cells
T1 sequence (P07550 whole entry): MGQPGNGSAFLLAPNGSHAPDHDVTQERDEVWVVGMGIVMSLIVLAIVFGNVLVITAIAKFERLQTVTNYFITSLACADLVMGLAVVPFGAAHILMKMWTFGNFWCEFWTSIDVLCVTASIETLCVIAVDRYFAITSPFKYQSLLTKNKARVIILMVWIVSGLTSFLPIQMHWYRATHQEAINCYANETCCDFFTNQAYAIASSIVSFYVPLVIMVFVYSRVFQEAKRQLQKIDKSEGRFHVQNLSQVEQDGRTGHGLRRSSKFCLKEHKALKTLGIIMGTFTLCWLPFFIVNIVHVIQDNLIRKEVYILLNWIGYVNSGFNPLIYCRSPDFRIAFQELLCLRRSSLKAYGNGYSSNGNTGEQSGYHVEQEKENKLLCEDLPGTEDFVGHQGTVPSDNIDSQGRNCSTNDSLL
Format: cell-based
Experimental: as §1, §2
Label-free receptor assays allow a greater array of changes in the receptor to be detected. […] The heat map was generated using the Euclidean hierarchical cluster analysis, after all DMR parameters were normalized to the epinephrine response.
In the case of `Oc1ccccc1O` [catechol], the “amplitudes of the DMR signal” value is reported as “smaller amplitudes”, the “kinetics for the P-DMR event” value is reported as “faster kinetics” and the “transition time of the DMR signal” value is reported as “slightly slower transition time”. In the case of `CNC[C@H](O)c1ccc(O)c(O)c1` [epinephrine], the “amplitudes of the DMR signal” value is reported as “maximum amplitudes”, the “kinetics for the P-DMR event” value is reported as “slow kinetics” and the “transition time of the DMR signal” value is reported as “fast transition time”. With `CNCC(O)c1ccccc1` (centres unmarked) [halostachine] the “amplitudes of the DMR signal” value was “smaller amplitudes”, the “kinetics for the P-DMR event” value was “faster kinetics” and the “transition time of the DMR signal” value was “slightly slower transition time”.

Same assay, conditions: DMR parameters normalized to the epinephrine response
`Oc1ccccc1O` [catechol] was tested, and the “heat map classification of β2-AR agonist pharmacology based on DMR parameters” value was “between the second and third group”. With `O=C(NCCNCC(O)COc1ccc(O)cc1)N1CCOCC1` (centres unmarked) [xamoterol] the “heat map classification of β2-AR agonist pharmacology based on DMR parameters” value was “between the second and third group”. In the case of `CNC[C@H](O)c1ccc(O)c(O)c1` [epinephrine], the “heat map classification of β2-AR agonist pharmacology based on DMR parameters” value is reported as “full agonists and strong partial agonists”. With `NC[C@H](O)c1ccc(O)c(O)c1` [norepinephrine] the “heat map classification of β2-AR agonist pharmacology based on DMR parameters” value was “full agonists and strong partial agonists”. In the case of `NCCc1ccc(O)c(O)c1` [dopamine], the “heat map classification of β2-AR agonist pharmacology based on DMR parameters” value is reported as “partial agonists”. For `CNCC(O)c1ccccc1` (centres unmarked) [halostachine], the “heat map classification of β2-AR agonist pharmacology based on DMR parameters” value was “partial agonists”. With `CC(C)NCC(O)COc1cccc2[nH]ccc12` (centres unmarked) [pindolol] the “heat map classification of β2-AR agonist pharmacology based on DMR parameters” value was “beta-blockers with weak partial agonism activity”.

Same assay, conditions: FIG. 7
`Oc1ccccc1O` [catechol] was tested, and the “saturating concentration for the DMR signal” value (from here on “saturating concentration”) was 500 µM. `CNC[C@H](O)c1ccc(O)c(O)c1` [epinephrine] was tested, and the “saturating concentration” value was 0.008 µM. With `NC[C@H](O)c1ccc(O)c(O)c1` [norepinephrine] the “saturating concentration” value was 0.1 µM. `NCCc1ccc(O)c(O)c1` [dopamine] was tested, and the “saturating concentration” value was 32 µM.

What follows are molecules tested on A431 cells (assay: DMR primary profiles of known GPCR agonists in A431 cells (receptor panning, cluster analysis)). Settings: each agonist at 10 micromolar, max-min of 40 picometer cutoff.
Format: cell-based, human
Experimental: as §1
An Epic® beta version wavelength interrogation system (Corning Inc., Corning, N.Y.) was used for whole cell sensing. This system consists of a temperature-control unit, an optical detection unit, and an on-board liquid handling unit with robotics. The detection unit is centered on integrated fiber optics, and enables kinetic measures of cellular responses with a time interval of ˜15 sec.
as §2
All studies were carried out at a controlled temperature (28° C.). At least two independent sets of experiments, each with at least three replicates, were performed. […] A typical DMR signal of cells, as measured using Epic system, is a real time kinetic response which consists a baseline pre-stimulation (often normalized to zero), and a cellular response post stimulation.
To pan endogenous G protein-coupled receptors (GPCRs) that are functional in label-free biosensor cellular assays, a library of known GPCR agonists was made. A431 cells were grown to monolayer on the Epic® 384well biosensor cell culture compatible microplates and subject to overnight starvation. After replacing the cell medium with 1×HBSS buffer and reaching equilibrium within the Epic® system, the cells were stimulated with known GPCR agonists, each at 10 micromolar. The known adenylate cyclase activator forskolin was also included as a positive control for the cAMP-PKA pathway.
Pattern recognition and pattern matching can be used to visualize their relations. However, when the numbers of molecule biosensor primary profiles increase dramatically, it becomes more difficult to use conventional pattern recognition methods, such as supervised learning, to study the relations of the molecule primary indices. Clustering analysis has been widely and successfully used in gene expression and protein network analysis which often deals with large datasets. Thus, clustering analysis and its parameters were identified herein to categorize the molecule primary indices. Both Hierarchical and k-Means clustering methods were examined. […] Here a max-min of 40 picometer was used as a cutoff to filter the original data. This heat map was generated using the real responses of each GPCR agonist at a 1-min time interval post stimulation.
With `CCNC(=O)[C@H]1O[C@@H](n2cnc3c(N)nc(NCCc4ccc(CCC(=O)O)cc4)nc32)[C@H](O)[C@@H]1O` [CGS21680] the “cluster of the agonist-induced primary DMR signal (two dimensional Hierarchical clustering, heat map)” value was “belong to the same cluster”. With `Nc1ncnc2c1ncn2[C@@H]1O[C@H](CO)[C@@H](O)[C@H]1O` [adenosine] the “cluster of the agonist-induced primary DMR signal (two dimensional Hierarchical clustering, heat map)” value was “belong to the same cluster”. In the case of `Nc1ncnc2c1ncn2[C@@H]1O[C@H](COP(=O)(O)OP(=O)(O)OP(=O)(O)O)[C@@H](O)[C@H]1O` [ATP], the “cluster of the agonist-induced primary DMR signal (two dimensional Hierarchical clustering, heat map)” value is reported as “belong to the same cluster”. For `CNC(=O)[C@H]1O[C@@H](n2cnc3c(NCc4cccc(I)c4)ncnc32)[C@H](O)[C@@H]1O` [IB-MECA], the “cluster of the agonist-induced primary DMR signal (two dimensional Hierarchical clustering, heat map)” value was “belong to the same cluster”. In the case of `O=c1ccn([C@@H]2O[C@H](COP(=O)(O)OP(=O)(O)OP(=O)(O)O)[C@@H](O)[C@H]2O)c(=O)[nH]1` [UTP], the “cluster of the agonist-induced primary DMR signal (two dimensional Hierarchical clustering, heat map)” value is reported as “belong to the same cluster”. With `OC[C@H]1O[C@@H](n2cnc3c(NC4CCCC4)nc(Cl)nc32)[C@H](O)[C@@H]1O` [CCPA] the “cluster of the agonist-induced primary DMR signal (two dimensional Hierarchical clustering, heat map)” value was “belong to the same cluster”.
